# Patent US20160067272A1, “METHODS FOR TREATING IMMUNE DISEASES” (priority 2013, published 2016)
# Entries after “also recorded” stand apart in the source; their conditions may differ.
# Columns and labels:
# [1] = test system: P2RX4, P2RX7, P2RY1, P2RY2, P2RY4; assay: Purinergic receptor expression in nTregs (real-time PCR, immunofluorescence); format: cell-based, mouse; conditions: 24 hrs
# [2] = test system: tryptophan hydroxylase-1 (Tph-1) and carboxypeptidase A3 (CA3); assay: Gene expression in CD4+ T cells (microarray, qPCR); format: cell-based, mouse
# From the text: After successive washes, RNA was eluted.
# NOD/Schilt mice = assay: Type 1 diabetes mouse model; format: in vivo
# Protocol: NOD/Schilt mice were used to assess the role of NAD+ as a treatment for Type I Diabetes (T1D). By the 20th week, […] started consistently rising above the normal average. By week 25, […] were detected over 600 mg/dL. These levels were consistently high for 1 week before treatment with NAD+ was initiated. Treatment with NAD+ was given daily at 40 mg per mouse.
# It is important to note that most T1D studies begin treating diabetic animals when glucose levels reach 250 mg/dl or greater for 2 consecutive days.
# EAE in C57BL/6 mice = assay: EAE mouse model (behavioral score, splenic CD4+ T cells, spinal cord histology); format: in vivo
# Protocol: Thus, the inventors used the experimental autoimmune encephalomyelitis (EAE) mouse model to study the impact of NAD^+, in vivo, on IL-10, Th1, Th17 and Treg cells in vivo. […] Next, the mechanisms by which NAD^+ protected from EAE in vivo were investigated, in particular its impact on IL-10 cytokine, Th1, Th17 and Tregs. Spleens were isolated from mice treated with NAD^+ or with a placebo solution 15 days after MOG immunization and CD4^+ T cell cytokine expression profile was analyzed by flow cytometry.
# To assess the clinical efficacy of NAD^+ as a potential robust therapeutic, a group of mice that developed severe clinical symptoms of EAE (e.g., bilateral hindlimb paresis) was subjected to a daily NAD^+ treatment 15 days after MOG immunization.
# Thus, the mechanism of how NAD^− treatment was able to reverse EAE progression was investigated. A previous study reported that nicotinamide (Nam) an NAD biosynthesis precursor can protect from myelin degradation and axon degeneration^43. The results described herein indicate that NAD^+ administered after the disease onset was able to reverse the progression of EAE. Thus, the inventors assessed whether NAD^+ was able to reverse the clinical symptoms of EAE by protecting axon from degeneration and whether NAD^+ had the capacity to promote myelin regeneration. […] Moreover, demyelination and axon loss were assessed with antibodies to myelin basic protein (MBP/SMI-9) and neurofilament (NF200), respectively, in all three groups (FIG. 5A-5F). Consistent with H&E and luxol blue findings, a significant reduction in both MBP staining depicting demyelination and axon loss evidenced by reduced NF 200 staining was very prominent in the group of mice treated with a placebo solution (FIG. 5A and 5D) when compared to the daily NAD^| treated group (FIG. 5B and 5E) and with mice treated with NAD+ after develop hindlimb paralysis (15 days after MOG immunization) (FIG. 5C and 5F).
# EAE was induced in 10-week-old C57BL/6 mice using Hooke Labs EAE induction kit (EK-2110) according to manufacturer's instructions. […] For NAD^+ treatment mice received a daily intraperitoneal injection (60 mg in 100 μl in PBS) or a placebo solution (100 μl of PBS) at the same day than MOG immunization. Mice were sacrificed at day 18 and single cell suspension was obtained from spleens for flow cytometry analysis. To test whether NAD^+ was able to reverse the development of EAE, another group of mice was treated daily (for a period of 10 days) with NAD^+ (60 mg/mouse) or a placebo solution 15 days after MOG immunization when mice were scored 3 with a bilateral hindlimb paresis. EAE disease progression was monitored. For Tph-1 or CA3 inhibition, mice received daily intraperitoneal injections (simultaneous to NAD^−) of p-Chlorophenylalanine (1 ml of a 10 mM solution stock, catalog number 0938, Tocris Bioscience) or N-[[[(1S)-1-Carboxy-3-methylbutyl]amino]carbonyl]-L-glutamic acid (100 μl of a 100 mM solution stock, ZJ 43 catalog number 2675,Tocris Bioscience), respectively.
# [3] = nTregs, anti-CD3/CD28, with vs without NAD+
# [4] = MOG-immunized mice, daily i.p. NAD+ from day of immunization
# [5] = daily NAD+ and NAD+ from 15 days after MOG immunization
# [6] = spleen, EAE mice, daily NAD+ vs placebo, flow cytometry
smiles,measurement,setting,value
"NC(=O)c1ccc[n+]([C@@H]2O[C@H](COP(=O)([O-])OP(=O)(O)OC[C@H]3O[C@@H](n4cnc5c(N)ncnc54)[C@H](O)[C@@H]3O)[C@@H](O)[C@H]2O)c1 [NAD+, nicotinamide adenine dinucleotide]",expression of P2RX4 receptor on the cell surface,"[1]; immunofluorescence, 50 μM NAD",increased
same,expression of P2RX7 receptor on the cell surface,"[1]; immunofluorescence, 50 μM NAD",increased
same,P2RX4 mRNA expression level,[1]; [3],> 4 fold
same,P2RX7 mRNA expression level,[1]; [3],> 15 fold
same,P2RY1 mRNA level,"[1]; nTregs, with vs without NAD+",remained unchanged
same,P2RY2 mRNA level,"[1]; nTregs, with vs without NAD+",remained unchanged
same,P2RY4 mRNA level,"[1]; nTregs, with vs without NAD+",remained unchanged
same,carboxypeptidase A3 (CA3) (microarray),[2]; during CD4+ T helper cell differentiation,activate
same,Tph-1 expression (qPCR),[2]; with vs without NAD+,up-regulation
same,blood glucose levels,"NOD/Schilt mice; diabetic mice (higher than 600 mg/dl), NAD+ daily 40 mg per mouse",much lower levels; also recorded: marked decrease
same,insulin levels,"NOD/Schilt mice; diabetic mice (over 600 mg/dL), NAD+ daily 40 mg per mouse, 5 days after treatment",started to decline at a significant rate
same,activity of lethargic type 1 diabetic mice,NOD/Schilt mice; within 10 days of NAD+ treatment,became much more active and aggressive
same,"spinal cord inflammatory infiltrate, myelin loss and axonal injury (LFB and H&E stainings)",EAE in C57BL/6 mice; EAE mice treated daily with NAD+,"remained free of inflammatory infiltrate, myelin loss, and axonal injury"
same,EAE (behavioral score),EAE in C57BL/6 mice; [4],protected against EAE
same,paralysis,EAE in C57BL/6 mice; [4],no sign of paralysis
same,"spinal cord inflammatory infiltrate, myelin loss and axonal injury (LFB and H&E stainings)",EAE in C57BL/6 mice; NAD+ started 15 days after MOG immunization (after hindlimb paralysis),"did not show inflammatory infiltrate, myelin loss, and axonal injury"
same,"myelination positive area (MBP), spinal cord",EAE in C57BL/6 mice; [5],significant protection and recovery
same,"neurofilament positive area (NF200), spinal cord",EAE in C57BL/6 mice; [5],significant protection and recovery
same,time of treatment until bilateral hindlimb paresis abolished,EAE in C57BL/6 mice; daily NAD+ started 15 days after MOG immunization,≤ 10 days
same,progression of EAE,"EAE in C57BL/6 mice; daily NAD+ started 15 days after MOG immunization (bilateral hindlimb paresis), vs placebo",reversed the progression of the disease
same,development of EAE,"EAE in C57BL/6 mice; daily NAD+, after 25 days",did not develop EAE
same,systemic IL-10 cytokine production by CD4+IFNγ+ cells,"EAE in C57BL/6 mice; spleen, EAE mice, daily NAD+ vs control group, flow cytometry",dramatically enhanced
same,IFNγ production by CD4+ T cells,EAE in C57BL/6 mice; [6],promoted
same,Th17 response,EAE in C57BL/6 mice; [6],promoted a robust Th17 response
same,number of CD4+CD25+Foxp3+ cells,EAE in C57BL/6 mice; [6],reduced
